Data published in US20060069132A1, “Azolecarboxamide herbicides” (priority 2004, published 2006).

Assays:
[1] = test system: barnyardgrass; assay: Test B pre-/postemergence herbicide test; type: in vivo, Echinochloa crus-galli
Summary of the method: (§1)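 Species tested were Echinochloa crus-galli, Ipomoea coccinea, Xanthium strumarium and Oryza sativa, treated both before emergence and at the 1- to 4-leaf stage; rice and barnyardgrass were also tested under flooding at 2 leaves. Greenhouse incubation lasted 13–15 days before visual 0–100 scoring.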

[2] = test system: Surinam grass; assay: Test B pre-/postemergence herbicide test; type: in vivo, Urochloa decumbens
Summary of the method: (§2)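 Greenhouse pot assay with simultaneous preemergence (treated seed) and postemergence (2–18 cm seedlings) applications of surfactant-containing, non-phytotoxic solvent formulations. Response scored visually 13–15 days later on a 0–100 scale, 100 meaning complete control.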

[3] = test system: corn; assay: Test B pre-/postemergence herbicide test; type: in vivo, Zea mays
Summary of the method: as §2

[4] = test system: large crabgrass; assay: Test B pre-/postemergence herbicide test; type: in vivo, Digitaria sanguinalis
Summary of the method: as §2

[5] = test system: giant foxtail; assay: Test B pre-/postemergence herbicide test; type: in vivo, Setaria faberi
Summary of the method: as §2

[6] = test system: lambsquarters; assay: Test B pre-/postemergence herbicide test; type: in vivo, Chenopodium album
Summary of the method: as §2

[7] = test system: morningglory; assay: Test B pre-/postemergence herbicide test; type: in vivo, Ipomoea coccinea
Summary of the method: as §1

[8] = test system: pigweed; assay: Test B pre-/postemergence herbicide test; type: in vivo, Amaranthus retroflexus
Summary of the method: as §2

[9] = test system: velvetleaf; assay: Test B pre-/postemergence herbicide test; type: in vivo, Abutilon theophrasti
Summary of the method: as §2

[10] = test system: blackgrass; assay: Test B postemergence herbicide test; type: in vivo, Alopecurus myosuroides; conditions: scale 0 (no effect) to 100 (complete control); for Plant response rating, Blackgrass: Postemergence, 500 g ai/ha, visual rating after 13 to 15 days; for Blackgrass plant response rating: postemergence, 125 g ai/ha, visual rating
Summary of the method: (§3)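 Plants grow to 1- to 4-leaf stage (2–18 cm) for postemergence spraying, or to 2-leaf stage for the paddy test. Formulated compound is applied. Greenhouse holding lasts 13–15 days. Response is scored visually relative to controls, 0 no effect to 100 complete control; a dash means no result.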

[11] = test system: wheat; assay: Test B postemergence herbicide test; type: in vivo, Triticum aestivum; parameters: key to Wheat plant response rating: 0 = no effect, 100 = complete control; conditions: scale 0 (no effect) to 100 (complete control); for Plant response rating, Wheat: Postemergence, 500 g ai/ha, visual rating after 13 to 15 days; for Wheat plant response rating: postemergence, 125 g ai/ha, visual rating
Summary of the method: (§4)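 Formulated test chemicals went onto postemergence plants measuring 2 to 18 cm, at one to four leaves. For the paddy assay, species had reached two leaves. Scoring took place 13–15 days later by eye, relative to untreated plants, using 0 for no effect up to 100 for full control.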

[12] = test system: wild oat; assay: Test B postemergence herbicide test; type: in vivo, Avena fatua; conditions: scale 0 (no effect) to 100 (complete control); for Plant response rating, Oat, Wild: Postemergence, 500 g ai/ha, visual rating after 13 to 15 days; for Oat, Wild plant response rating: postemergence, 125 g ai/ha, visual rating
Summary of the method: as §4

[13] = test system: rice; assay: Test B flooded paddy test; type: in vivo, Oryza sativa; conditions: 1000 g ai/ha, visual rating, scale 0 to 100 (0 no effect, 100 complete control), 13 to 15 days
Summary of the method: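 Greenhouse test; postemergence application to plants at 1–4 leaves (2–18 cm); paddy species at 2 leaves; evaluated visually vs controls at 13–15 days; scale 0–100 (100 = complete control).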

[14] = test system: small flower umbrella sedge; assay: Test B flooded paddy test; type: in vivo, Cyperus difformis; conditions: 1000 g ai/ha, visual rating, scale 0 to 100 (0 no effect, 100 complete control), 13 to 15 days
Summary of the method: as §3

[15] = test system: ducksalad; assay: Test B flooded paddy test; type: in vivo, Heteranthera limosa; conditions: 1000 g ai/ha, visual rating, scale 0 to 100 (0 no effect, 100 complete control), 13 to 15 days
Summary of the method: as §3

[16] = Postemergence, 500 g ai/ha, visual rating after 13 to 15 days, scale 0 (no effect) to 100 (complete control)
[17] = Preemergence, 500 g ai/ha, scale 0 to 100
[18] = postemergence, 125 g ai/ha, visual rating, scale 0 (no effect) to 100 (complete control)
[19] = preemergence, 125 g ai/ha, 0 to 100 scale, 0 is no effect, 100 is complete control

CCNC(=O)c1cc(NC(=O)c2cc(C(C)(C)C)nn2CC)ccc1F [Compound 58]
Plant response rating, Barnyardgrass [1, 16]: 60
Barnyardgrass plant response rating [1, 17]: 100
Barnyardgrass plant response rating [1, 18]: 30
Plant response rating, Barnyardgrass [1, 19]: 90
Plant response rating, Surinam Grass [2, 16]: 30
Surinam Grass plant response rating [2, 17]: 60
Surinam Grass plant response rating [2, 18]: 10
Plant response rating, Surinam Grass [2, 19]: 30
Plant response rating, Corn [3, 16]: 20
Corn plant response rating [3, 17]: 30
Corn plant response rating [3, 18]: 10
Plant response rating, Corn [3, 19]: 20
Plant response rating, Crabgrass, Large [4, 16]: 30
Crabgrass, Large plant response rating [4, 17]: 100
Crabgrass, Large plant response rating [4, 18]: 20
Plant response rating, Crabgrass, Large [4, 19]: 100
Plant response rating, Foxtail, Giant [5, 16]: 20
Foxtail, Giant plant response rating [5, 17]: 100
Foxtail, Giant plant response rating [5, 18]: 20
Plant response rating, Foxtail, Giant [5, 19]: 100
Plant response rating, Lambsquarters [6, 16]: 90
Lambsquarters plant response rating [6, 17]: 100
Lambsquarters plant response rating [6, 18]: 90
Plant response rating, Lambsquarters [6, 19]: 100
Plant response rating, Morningglory [7, 16]: 30
Morningglory plant response rating [7, 17]: 30
Morningglory plant response rating [7, 18]: 20
Plant response rating, Pigweed [8, 16]: 90
Pigweed plant response rating [8, 17]: 100
Pigweed plant response rating [8, 18]: 60
Plant response rating, Pigweed [8, 19]: 100
Plant response rating, Velvetleaf [9, 16]: 70
Velvetleaf plant response rating [9, 17]: 100
Velvetleaf plant response rating [9, 18]: 50
Plant response rating, Velvetleaf [9, 19]: 60
Plant response rating, Blackgrass [10]: 30
Blackgrass plant response rating [10]: 10
Plant response rating, Wheat [11]: 20
Wheat plant response rating [11]: 0
Plant response rating, Oat, Wild [12]: 30
Oat, Wild plant response rating [12]: 20
Rice plant response rating [13]: 60
Sedge, Umbrella plant response rating [14]: 80
Ducksalad plant response rating [15]: 80

CCn1nc(C(C)(C)C)cc1C(=O)Nc1cccc2c1CCN(C1CC1)C2=O [Compound 64]
Plant response rating, Barnyardgrass [1, 16]: 10
Barnyardgrass plant response rating [1, 17]: 90
Barnyardgrass plant response rating [1, 18]: 10
Plant response rating, Barnyardgrass [1, 19]: 50
Plant response rating, Surinam Grass [2, 16]: 10
Surinam Grass plant response rating [2, 18]: 10
Plant response rating, Surinam Grass [2, 19]: 10
Plant response rating, Corn [3, 16]: 20
Corn plant response rating [3, 17]: 0
Corn plant response rating [3, 18]: 10
Plant response rating, Corn [3, 19]: 0
Plant response rating, Crabgrass, Large [4, 16]: 10
Crabgrass, Large plant response rating [4, 17]: 100
Crabgrass, Large plant response rating [4, 18]: 10
Plant response rating, Crabgrass, Large [4, 19]: 20
Plant response rating, Foxtail, Giant [5, 16]: 10
Foxtail, Giant plant response rating [5, 17]: 100
Foxtail, Giant plant response rating [5, 18]: 10
Plant response rating, Foxtail, Giant [5, 19]: 10
Plant response rating, Lambsquarters [6, 16]: 70
Lambsquarters plant response rating [6, 18]: 70
Plant response rating, Lambsquarters [6, 19]: 60
Plant response rating, Morningglory [7, 16]: 20
Morningglory plant response rating [7, 18]: 0
Plant response rating, Morningglory [7, 19]: 0
Plant response rating, Pigweed [8, 16]: 50
Pigweed plant response rating [8, 18]: 20
Plant response rating, Pigweed [8, 19]: 100
Plant response rating, Velvetleaf [9, 16]: 10
Velvetleaf plant response rating [9, 18]: 10
Plant response rating, Velvetleaf [9, 19]: 0
Plant response rating, Blackgrass [10]: 10
Blackgrass plant response rating [10]: 0
Plant response rating, Wheat [11]: 10
Wheat plant response rating [11]: 0
Plant response rating, Oat, Wild [12]: 20
Oat, Wild plant response rating [12]: 20
Rice plant response rating [13]: 50
Sedge, Umbrella plant response rating [14]: 90
Ducksalad plant response rating [15]: 90

CCCN1CCc2c(NC(=O)c3cc(C(C)(C)C)nn3CC)cccc2C1=O [Compound 65]
Plant response rating, Barnyardgrass [1, 16]: 10
Barnyardgrass plant response rating [1, 17]: 90
Barnyardgrass plant response rating [1, 18]: 10
Plant response rating, Barnyardgrass [1, 19]: 50
Plant response rating, Surinam Grass [2, 16]: 20
Surinam Grass plant response rating [2, 18]: 20
Plant response rating, Surinam Grass [2, 19]: 10
Plant response rating, Corn [3, 16]: 20
Corn plant response rating [3, 17]: 10
Corn plant response rating [3, 18]: 20
Plant response rating, Corn [3, 19]: 0
Plant response rating, Crabgrass, Large [4, 16]: 20
Crabgrass, Large plant response rating [4, 17]: 80
Crabgrass, Large plant response rating [4, 18]: 10
Plant response rating, Crabgrass, Large [4, 19]: 20
Plant response rating, Foxtail, Giant [5, 16]: 20
Foxtail, Giant plant response rating [5, 17]: 80
Foxtail, Giant plant response rating [5, 18]: 10
Plant response rating, Foxtail, Giant [5, 19]: 20
Plant response rating, Lambsquarters [6, 16]: 70
Lambsquarters plant response rating [6, 18]: 70
Plant response rating, Lambsquarters [6, 19]: 80
Plant response rating, Morningglory [7, 16]: 20
Morningglory plant response rating [7, 18]: 10
Plant response rating, Morningglory [7, 19]: 0
Plant response rating, Pigweed [8, 16]: 60
Pigweed plant response rating [8, 18]: 40
Plant response rating, Pigweed [8, 19]: 90
Plant response rating, Velvetleaf [9, 16]: 10
Velvetleaf plant response rating [9, 18]: 10
Plant response rating, Velvetleaf [9, 19]: 10
Plant response rating, Blackgrass [10]: 10
Blackgrass plant response rating [10]: 10
Plant response rating, Wheat [11]: 10
Wheat plant response rating [11]: 0
Plant response rating, Oat, Wild [12]: 20
Oat, Wild plant response rating [12]: 10
Rice plant response rating [13]: 50
Sedge, Umbrella plant response rating [14]: 90
Ducksalad plant response rating [15]: 90

CCCCOC(=O)c1cccc(NC(=O)c2cc(C(C)(C)C)nn2CC)c1 [Compound 86]
Plant response rating, Barnyardgrass [1, 16]: 80
Barnyardgrass plant response rating [1, 17]: 0
Barnyardgrass plant response rating [1, 18]: 50
Plant response rating, Barnyardgrass [1, 19]: 0
Plant response rating, Surinam Grass [2, 16]: 100
Surinam Grass plant response rating [2, 18]: 70
Plant response rating, Surinam Grass [2, 19]: 0
Plant response rating, Corn [3, 16]: 30
Corn plant response rating [3, 17]: 0
Corn plant response rating [3, 18]: 20
Plant response rating, Corn [3, 19]: 0
Plant response rating, Crabgrass, Large [4, 16]: 90
Crabgrass, Large plant response rating [4, 17]: 0
Crabgrass, Large plant response rating [4, 18]: 60
Plant response rating, Crabgrass, Large [4, 19]: 0
Plant response rating, Foxtail, Giant [5, 16]: 60
Foxtail, Giant plant response rating [5, 17]: 0
Foxtail, Giant plant response rating [5, 18]: 40
Plant response rating, Foxtail, Giant [5, 19]: 0
Plant response rating, Lambsquarters [6, 16]: 90
Lambsquarters plant response rating [6, 18]: 80
Plant response rating, Lambsquarters [6, 19]: 0
Plant response rating, Morningglory [7, 16]: 100
Morningglory plant response rating [7, 18]: 60
Plant response rating, Morningglory [7, 19]: 0
Plant response rating, Pigweed [8, 16]: 100
Pigweed plant response rating [8, 18]: 100
Plant response rating, Pigweed [8, 19]: 0
Plant response rating, Velvetleaf [9, 16]: 70
Velvetleaf plant response rating [9, 18]: 60
Plant response rating, Velvetleaf [9, 19]: 0
Plant response rating, Blackgrass [10]: 20
Blackgrass plant response rating [10]: 10
Plant response rating, Wheat [11]: 40
Wheat plant response rating [11]: 30
Plant response rating, Oat, Wild [12]: 60
Oat, Wild plant response rating [12]: 30
Rice plant response rating [13]: 50
Sedge, Umbrella plant response rating [14]: 70
Ducksalad plant response rating [15]: 20

CCOC(=O)c1cccc(NC(=O)c2cc(C(C)(C)C)nn2CC)c1C [Compound 88]
Plant response rating, Barnyardgrass [1, 16]: 60
Barnyardgrass plant response rating [1, 17]: 90
Barnyardgrass plant response rating [1, 18]: 30
Plant response rating, Barnyardgrass [1, 19]: 70
Plant response rating, Surinam Grass [2, 16]: 0
Surinam Grass plant response rating [2, 18]: 0
Plant response rating, Surinam Grass [2, 19]: 20
Plant response rating, Corn [3, 16]: 70
Corn plant response rating [3, 17]: 60
Corn plant response rating [3, 18]: 10
Plant response rating, Corn [3, 19]: 0
Plant response rating, Crabgrass, Large [4, 16]: 60
Crabgrass, Large plant response rating [4, 17]: 100
Crabgrass, Large plant response rating [4, 18]: 30
Plant response rating, Crabgrass, Large [4, 19]: 90
Plant response rating, Foxtail, Giant [5, 16]: 40
Foxtail, Giant plant response rating [5, 17]: 90
Foxtail, Giant plant response rating [5, 18]: 30
Plant response rating, Foxtail, Giant [5, 19]: 70
Plant response rating, Lambsquarters [6, 16]: 100
Lambsquarters plant response rating [6, 18]: 70
Plant response rating, Lambsquarters [6, 19]: 100
Plant response rating, Morningglory [7, 16]: 0
Morningglory plant response rating [7, 18]: 0
Plant response rating, Morningglory [7, 19]: 0
Plant response rating, Pigweed [8, 16]: 60
Pigweed plant response rating [8, 18]: 50
Plant response rating, Pigweed [8, 19]: 100
Plant response rating, Velvetleaf [9, 16]: 70
Velvetleaf plant response rating [9, 18]: 30
Plant response rating, Velvetleaf [9, 19]: 40
Plant response rating, Blackgrass [10]: 0
Blackgrass plant response rating [10]: 0
Plant response rating, Wheat [11]: 0
Wheat plant response rating [11]: 0
Plant response rating, Oat, Wild [12]: 0
Oat, Wild plant response rating [12]: 0
Rice plant response rating [13]: 40
Sedge, Umbrella plant response rating [14]: 80
Ducksalad plant response rating [15]: 80
